# Experimental data as given in patent publication US9695155B2, “Herbicidal substituted pyrimidinyloxy benzene compounds” (E. I. DU PONT DE NEMOURS AND COMPANY, priority 2013, dated 2017).
# Key:
# Italian ryegrass = assay: Test D preemergence; type: in vivo, Lolium multiflorum; conditions: Lolium multiflorum, pre-emergence
# Summary of the method: (§1)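 Seeds sown in silt loam soil got preemergence sprays; plants in peat/vermiculite potting medium were sprayed postemergence at 2–18 cm (1- to 4-leaf stage). Chemicals were formulated in a non-phytotoxic solvent mixture with surfactant. After 7 to 21 days in a controlled environment, injury was rated visually versus controls, 0 (no effect) to 100 (complete control).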
# kochia = assay: Test D preemergence; type: in vivo, Kochia scoparia; conditions: Bassia scoparia, pre-emergence
# Summary of the method: as §1
# spring wheat [1] = assay: Test D preemergence; type: in vivo, Triticum aestivum; conditions: Triticum aestivum, pre-emergence
# Summary of the method: as §1
# winter wheat [2] = assay: Test D preemergence; type: in vivo, Triticum aestivum; conditions: Triticum aestivum, pre-emergence
# Summary of the method: as §1
# chickweed = assay: Test D postemergence; type: in vivo, Stellaria media; conditions: Stellaria media, post-emergence
# Summary of the method: as §1
# pigweed = assay: Test D postemergence; type: in vivo, Amaranthus retroflexus; conditions: Amaranthus retroflexus, post-emergence
# Summary of the method: as §1
# spring wheat [3] = assay: Test D postemergence; type: in vivo, Triticum aestivum; conditions: Triticum aestivum, post-emergence
# Summary of the method: as §1
# winter wheat [4] = assay: Test D postemergence; type: in vivo, Triticum aestivum; conditions: Triticum aestivum, post-emergence
# Summary of the method: as §1
# corn = assay: Test E postemergence; type: in vivo, Zea mays; conditions: Zea mays, post-emergence
# Description: (§2) Seeds of plant species selected from corn (Zea mays), soybean (Glycine max), velvetleaf (Abutilon theophrasti), lambsquarters (Chenopodium album), wild poinsettia (Euphorbia heterophylla), palmer pigweed (Amaranthus palmeri), waterhemp (common waterhemp, Amaranthus rudis), surinam grass (Brachiaria decumbens), large (Lg) crabgrass (Digitaria sanguinalis), Brazilian crabgrass (Digitaria horizontalis), fall panicum (Panicum dichotomiflorum), giant foxtail (Setaria faberii), green foxtail (Setaria viridis), goosegrass (Eleusine indica), johnsongrass (Sorghum halepense), ragweed (common ragweed, Ambrosia elatior), barnyardgrass (Echinochloa crus-galli), sandbur (southern sandbur, Cenchrus echinatus), arrowleaf sida (Sida rhombifolia), Italian ryegrass (Lolium multiflorum), dayflower (Virginia (VA) dayflower, Commelina virginica), field bindweed (Convolvulus arvensis), morningglory (Ipomoea coccinea), nightshade (eastern black nightshade, Solanum ptycanthum), kochia (Kochia scoparia), yellow nutsedge (Cyperus esculentus), cocklebur (common cocklebur, Xanthium strumarium), smartweed (ladysthumb smartweed, and hairy beggarticks (Bidens pilosa), were planted into a silt loam soil and treated preemergence with test chemicals formulated in a non-phytotoxic solvent mixture which included a surfactant.
# (§3) At the same time, plants from these crop and weed species and also horseweed (Canada horseweed, Conyza canadensis), waterhemp_RES1, (ALS & Triazine resistant common waterhemp, Amaranthus rudis), and waterhemp_RES2, (ALS & HPPD resistant common waterhemp, Amaranthus rudis) were planted in pots containing Redi-Earth® planting medium (Scotts Company, 14111 Scottslawn Road, Marysville, Ohio 43041) comprising spaghnum peat moss, vermiculite, wetting agent and starter nutrients were treated with postemergence applications of test chemicals formulated in the same manner. Plants ranged in height from 2 to 18 cm for postemergence treatments (1- to 4-leaf stage). Treated plants and controls were maintained in a greenhouse for 14 to 21 days, after which time all species were compared to controls and visually evaluated. Plant response ratings, summarized in Table E, are based on a scale of 0 to 100 where 0 is no effect and 100 is complete control. A dash (-) response means no test result.
# waterhemp = assay: Test E postemergence; type: in vivo, Amaranthus rudis; conditions: Amaranthus tuberculatus, post-emergence, read-out: Plant response rating, Waterhemp
# Summary of the method: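 Test chemicals formulated in a non-phytotoxic solvent mixture containing a surfactant were applied preemergence to seeds in silt loam soil or postemergence to plants at the 1- to 4-leaf stage in potting mix. After 14 to 21 days in a greenhouse, injury was visually rated against controls on a 0-100 scale (0 = no effect, 100 = complete control).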
# Brazilian crabgrass = assay: Test E postemergence; type: in vivo, Digitaria horizontalis; conditions: Digitaria horizontalis, post-emergence, read-out: Plant response rating, Crabgrass, Brazil
# Description: as §2, §3
# field bindweed = assay: Test E postemergence; type: in vivo, Convolvulus arvensis; conditions: Convolvulus arvensis, post-emergence, read-out: Plant response rating, Field Bindweed
# Description: as §2, §3
# hairy beggarticks = assay: Test E postemergence; type: in vivo, Bidens pilosa; conditions: Bidens pilosa, post-emergence, read-out: Plant response rating, Beggarticks
# Description: as §2, §3
# [5] = Postemergence, 31 g ai/ha, scale 0 to 100
# [6] = Postemergence, 62 g ai/ha, scale 0 to 100
# [7] = Postemergence, 125 g ai/ha, scale 0 to 100
# [8] = postemergence, 8 g ai/ha, scale 0 to 100, 0 no effect, 100 complete control
# [9] = postemergence, 16 g ai/ha, scale 0 to 100, 0 no effect, 100 complete control
smiles,measurement,setting,value
"Clc1cnc(Oc2ccccc2-n2cc(Br)cn2)nc1 [Compound 7, 2-[2-(4-bromo-1H-pyrazol-1-yl)phenoxy]-5-chloropyrimidine]",pest or weed control at 16 g/ha,"Italian ryegrass; 16 g ai/ha, scale 0 (no effect) to 100 (complete control), read-out: Plant response rating, Ryegrass, Italian",0%
same,pest or weed control at 31 g/ha,"Italian ryegrass; 31 g ai/ha, scale 0 (no effect) to 100 (complete control), read-out: Plant response rating, Ryegrass, Italian",0%
same,pest or weed control at 62 g/ha,"Italian ryegrass; 62 g ai/ha, scale 0-100, read-out: Plant response rating, Ryegrass, Italian",0%
same,pest or weed control at 125 g/ha,"Italian ryegrass; 125 g ai/ha, scale 0-100, read-out: Plant response rating, Ryegrass, Italian",0%
same,pest or weed control at 250 g/ha,"Italian ryegrass; 250 g ai/ha, scale 0-100, read-out: Plant response rating, Ryegrass, Italian",5%
same,pest or weed control at 16 g/ha,"kochia; 16 g ai/ha, scale 0 (no effect) to 100 (complete control), read-out: Plant response rating, Kochia",0%
same,pest or weed control at 31 g/ha,"kochia; 31 g ai/ha, scale 0-100, read-out: Plant response rating, Kochia",0%
same,pest or weed control at 62 g/ha,"kochia; 62 g ai/ha, scale 0-100, read-out: Plant response rating, Kochia",0%
same,pest or weed control at 125 g/ha,"kochia; 125 g ai/ha, scale 0-100, read-out: Plant response rating, Kochia",0%
same,pest or weed control at 250 g/ha,"kochia; 250 g ai/ha, scale 0-100, read-out: Plant response rating, Kochia",70%
same,plant injury at 16 g/ha,"spring wheat [1]; 16 g ai/ha, scale 0 (no effect) to 100 (complete control), read-out: Plant response rating, Wheat, Spring",0%
same,plant injury at 31 g/ha,"spring wheat [1]; 31 g ai/ha, scale 0 (no effect) to 100 (complete control), read-out: Plant response rating, Wheat, Spring",0%
same,plant injury at 62 g/ha,"spring wheat [1]; 62 g ai/ha, scale 0-100, read-out: Plant response rating, Wheat, Spring",0%
same,plant injury at 125 g/ha,"spring wheat [1]; 125 g ai/ha, scale 0-100, read-out: Plant response rating, Wheat, Spring",0%
same,plant injury at 250 g/ha,"spring wheat [1]; 250 g ai/ha, scale 0-100, read-out: Plant response rating, Wheat, Spring",0%
same,plant injury at 16 g/ha,"winter wheat [2]; 16 g ai/ha, scale 0 (no effect) to 100 (complete control), read-out: Plant response rating, Wheat, Winter",0%
same,plant injury at 31 g/ha,"winter wheat [2]; 31 g ai/ha, scale 0 (no effect) to 100 (complete control), read-out: Plant response rating, Wheat, Winter",0%
same,plant injury at 62 g/ha,"winter wheat [2]; 62 g ai/ha, scale 0-100, read-out: Plant response rating, Wheat, Winter",0%
same,plant injury at 125 g/ha,"winter wheat [2]; 125 g ai/ha, scale 0-100, read-out: Plant response rating, Wheat, Winter",5%
same,plant injury at 250 g/ha,"winter wheat [2]; 250 g ai/ha, scale 0-100, read-out: Plant response rating, Wheat, Winter",10%
same,pest or weed control at 16 g/ha,"chickweed; 16 g ai/ha, scale 0-100, read-out: Plant response rating, Chickweed",10%
same,pest or weed control at 31 g/ha,"chickweed; 31 g ai/ha, scale 0 to 100 (0 no effect, 100 complete control), read-out: Plant response rating, Chickweed",10%
same,pest or weed control at 62 g/ha,"chickweed; 62 g ai/ha, scale 0 to 100 (0 no effect, 100 complete control), read-out: Plant response rating, Chickweed",20%
same,pest or weed control at 125 g/ha,"chickweed; 125 g ai/ha, scale 0 to 100 (0 no effect, 100 complete control), read-out: Plant response rating, Chickweed",60%
same,pest or weed control at 250 g/ha,"chickweed; 250 g ai/ha, scale 0 to 100 (0 no effect, 100 complete control), read-out: Plant response rating, Chickweed",80%
same,pest or weed control at 16 g/ha,"pigweed; 16 g ai/ha, scale 0-100, read-out: Plant response rating, Pigweed",70%
same,pest or weed control at 31 g/ha,"pigweed; 31 g ai/ha, scale 0 to 100 (0 no effect, 100 complete control), read-out: Plant response rating, Pigweed",90%
same,pest or weed control at 62 g/ha,"pigweed; 62 g ai/ha, scale 0 to 100 (0 no effect, 100 complete control), read-out: Plant response rating, Pigweed",100%
same,pest or weed control at 125 g/ha,"pigweed; 125 g ai/ha, scale 0 to 100 (0 no effect, 100 complete control), read-out: Plant response rating, Pigweed",100%
same,pest or weed control at 250 g/ha,"pigweed; 250 g ai/ha, scale 0 to 100 (0 no effect, 100 complete control), read-out: Plant response rating, Pigweed",100%
same,plant injury at 16 g/ha,"spring wheat [3]; 16 g ai/ha, scale 0-100, read-out: Plant response rating, Wheat, Spring",0%
same,plant injury at 31 g/ha,"spring wheat [3]; 31 g ai/ha, scale 0 to 100 (0 no effect, 100 complete control), read-out: Plant response rating, Wheat, Spring",0%
same,plant injury at 62 g/ha,"spring wheat [3]; 62 g ai/ha, scale 0 to 100 (0 no effect, 100 complete control), read-out: Plant response rating, Wheat, Spring",0%
same,plant injury at 125 g/ha,"spring wheat [3]; 125 g ai/ha, scale 0 to 100 (0 no effect, 100 complete control), read-out: Plant response rating, Wheat, Spring",10%
same,plant injury at 250 g/ha,"spring wheat [3]; 250 g ai/ha, scale 0 to 100 (0 no effect, 100 complete control), read-out: Plant response rating, Wheat, Spring",10%
same,plant injury at 16 g/ha,"winter wheat [4]; 16 g ai/ha, scale 0-100, read-out: Plant response rating, Wheat, Winter",0%
same,plant injury at 31 g/ha,"winter wheat [4]; 31 g ai/ha, scale 0 to 100 (0 no effect, 100 complete control), read-out: Plant response rating, Wheat, Winter",0%
same,plant injury at 62 g/ha,"winter wheat [4]; 62 g ai/ha, scale 0 to 100 (0 no effect, 100 complete control), read-out: Plant response rating, Wheat, Winter",0%
same,plant injury at 125 g/ha,"winter wheat [4]; 125 g ai/ha, scale 0 to 100 (0 no effect, 100 complete control), read-out: Plant response rating, Wheat, Winter",10%
same,plant injury at 250 g/ha,"winter wheat [4]; 250 g ai/ha, scale 0 to 100 (0 no effect, 100 complete control), read-out: Plant response rating, Wheat, Winter",10%
same,"corn plant response (injury) rating, 0-100 at 31 g/ha",corn; [5],0%
same,"corn plant response (injury) rating, 0-100 at 62 g/ha",corn; [6],10%
same,"corn plant response (injury) rating, 0-100 at 125 g/ha",corn; [7],5%
same,"corn plant response (injury) rating, 0-100 at 8 g/ha",corn; [8],0%
same,"corn plant response (injury) rating, 0-100 at 16 g/ha",corn; [9],0%
same,pest or weed control at 31 g/ha,waterhemp; [5],90%
same,pest or weed control at 62 g/ha,waterhemp; [6],90%
same,pest or weed control at 125 g/ha,waterhemp; [7],90%
same,pest or weed control at 8 g/ha,waterhemp; [8],70%
same,pest or weed control at 16 g/ha,waterhemp; [9],80%
same,pest or weed control at 31 g/ha,Brazilian crabgrass; [5],10%
same,pest or weed control at 62 g/ha,Brazilian crabgrass; [6],20%
same,pest or weed control at 125 g/ha,Brazilian crabgrass; [7],30%
same,pest or weed control at 8 g/ha,Brazilian crabgrass; [8],0%
same,pest or weed control at 16 g/ha,Brazilian crabgrass; [9],0%
same,pest or weed control at 31 g/ha,field bindweed; [5],30%
same,pest or weed control at 62 g/ha,field bindweed; [6],50%
same,pest or weed control at 125 g/ha,field bindweed; [7],70%
same,pest or weed control at 8 g/ha,field bindweed; [8],15%
same,pest or weed control at 16 g/ha,field bindweed; [9],20%
same,pest or weed control at 31 g/ha,hairy beggarticks; [5],40%
same,pest or weed control at 62 g/ha,hairy beggarticks; [6],50%
same,pest or weed control at 125 g/ha,hairy beggarticks; [7],60%
same,pest or weed control at 8 g/ha,hairy beggarticks; [8],25%
same,pest or weed control at 16 g/ha,hairy beggarticks; [9],35%
